Source: patent US10702607B2, “Abuse-deterrent pharmaceutical compositions” (priority 2016, dated 2020)

How the values were obtained:
pepsin = target: T1, pepsin (Sus scrofa, UniProt P00791); assay: Pepsin digestion assay in simulated gastric fluid (SGF) with SDS-PAGE analysis; format: in vitro ADME; settings: 37° C.
T1 construct: purchased Sigma-Aldrich (US) P7000
Experimental: SGF contains 0.084 M HCl, 0.035 M NaCl, 4000 U of pepsin per reaction mixture and has a pH level of 1.2 according to the United States Pharmacopeia (1995). A ratio of 10000 Units of pepsin activity to 1 mg of test protein was used throughout the assay, which is based on an evaluation of the average activity of pepsin recommended in the United States Pharmacopeia (24th edition, 2000) with some modifications. Pepsin (ref. # P7000) was purchased from Sigma-Aldrich (US). All proteins that were used were dissolved in 50 mM Tris-HCl (pH 9.5) at a concentration of 5 mg mL^−1. The reaction mixture contained 1.52 mL of SGF preheated to 37° C. before the addition of 0.08 mL of protein solution (Thomas et al., 2004). The mixture was placed into a thermomixer at 37° C. and was shaken at 400 rpm. For denaturating SDS-polyacrylamide gel electrophoresis (SDS-PAGE) analysis samples of 160 μl were removed at 0 minutes, 0.5 minutes, and 15 minutes after initiation.
SDS-PAGE was performed to analyze and visually inspect stained protein bands whether the protein band is still intact or fragmented after the digestion assay. […]
Each 160 μl of the digestion samples was quenched by […] of 200 mM NaHCO3 as neutralization step and 56 μl 4× Laemmli (Laemmli 1970) buffer for electrophoresis. Samples were immediately heated up to 99° C. for 10 minutes and analyzed directly or stored at −20° C. […]

laccase [1] = assay: Laccase mediator system (LMS) with oxycodone: oxygen concentration measurement; format: biochemical; settings: mediator 2 mM, 10 units laccase ml^-1, 1000 mgL^-1 oxycodone
Experimental: During the reaction oxygen acts as electron acceptor and is reduced to water by laccases while the mediators are oxidized. The concentration of oxygen was measured as described above. Oxygen is consumed until the mediator is fully oxidized. […] The second step of the reaction is initiated by addition of the target substrate, which is consequently oxidized by the mediators.
In the present experiments the final reaction mixtures contained 0.2 to 6 mM mediator, 1-10 units of laccase per ml and 100-3000 mg L^−1 opioid.
The different mediators were used at concentrations of 2 mM with 10 units laccase ml^−1 and 1000 mgL^−1 oxycodone.

laccase [2] = assay: Laccase mediator system (LMS) with oxycodone: HPLC-MS/TOF measurement; settings: mediator 2 mM

T1 sequence (P00791 60-385): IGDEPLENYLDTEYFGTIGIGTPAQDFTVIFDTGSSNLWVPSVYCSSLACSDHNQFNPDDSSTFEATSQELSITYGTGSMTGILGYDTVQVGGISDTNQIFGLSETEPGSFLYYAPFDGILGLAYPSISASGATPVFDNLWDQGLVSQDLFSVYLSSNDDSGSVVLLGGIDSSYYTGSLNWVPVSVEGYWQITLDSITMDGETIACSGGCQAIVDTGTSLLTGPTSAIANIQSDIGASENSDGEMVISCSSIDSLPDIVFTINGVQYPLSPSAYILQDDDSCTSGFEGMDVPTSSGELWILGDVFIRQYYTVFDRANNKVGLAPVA

Row | Molecule | proteolytic degradation (pepsin; SGF pH 1.2, pepsin 10000 Units per mg test protein, samples at 0, 0.5, 15 minutes, SDS-PAGE) | protein band on SDS-PAGE after pepsin digestion (pepsin; SGF pH 1.2, pepsin) | oxygen concentration after the addition of oxycodone (oxidation of oxycodone) (laccase [1]) | effect of mediator on oxycodone (MS-TOF analysis) (laccase [2])
1 | HRP: horseradish peroxidase (EC 1.11.1.7) | very susceptible to proteolytic degradation | vanished within seconds | – | –
2 | CCOc1cc(C=O)ccc1O [ethylvanillin] | – | – | drop in oxygen concentration | –
3 | COc1cc(C=O)ccc1O [vanillin] | – | – | drop in oxygen concentration | –
4 | COc1cc(C(=O)O)cc(OC)c1O [syringic acid] | – | – | drop in oxygen concentration | –
5 | O=C(O)c1cc(O)c(O)c(O)c1 [gallic acid] | – | – | no apparent effect | no apparent effect
